Experimental data: patent US9133183B2, “Imidazolidinones and analogs exhibiting anti-cancer and anti-proliferative activities” (Deciphera Pharmaceuticals, LLC, priority 2013, dated 2015)
Read-outs that look alike come from different tables or passages of the source.

Legend:
osteoclast precursors = assay: Osteoclast tartrate-resistant acid phosphatase assay; assay type: cell-based; details: 7-14 days, RANKL and M-CSF
M-NFS-60 cells = assay: M-NFS-60 cell proliferation assay (resazurin); assay type: cell-based; details: 67 h incubation
How it was run: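 Cells kept in medium containing 20 ng/mL mouse recombinant M-CSF. Fluorescence was read at ex 540/em 600 nm, and IC50 was fitted from percent inhibition across a range of inhibitor concentrations.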

[1] = target: c-FMS kinase in THP-1 cells (Homo sapiens (Human), UniProt P07333); assay: Phospho-FMS ELISA assay in THP-1 cells; assay type: cell-based; details: 4 h compound, M-CSF stimulation 5 min; read-out: pFMS inhibition in THP-1 cells
c-FMS kinase in THP-1 cells, sequence (P07333 20-972): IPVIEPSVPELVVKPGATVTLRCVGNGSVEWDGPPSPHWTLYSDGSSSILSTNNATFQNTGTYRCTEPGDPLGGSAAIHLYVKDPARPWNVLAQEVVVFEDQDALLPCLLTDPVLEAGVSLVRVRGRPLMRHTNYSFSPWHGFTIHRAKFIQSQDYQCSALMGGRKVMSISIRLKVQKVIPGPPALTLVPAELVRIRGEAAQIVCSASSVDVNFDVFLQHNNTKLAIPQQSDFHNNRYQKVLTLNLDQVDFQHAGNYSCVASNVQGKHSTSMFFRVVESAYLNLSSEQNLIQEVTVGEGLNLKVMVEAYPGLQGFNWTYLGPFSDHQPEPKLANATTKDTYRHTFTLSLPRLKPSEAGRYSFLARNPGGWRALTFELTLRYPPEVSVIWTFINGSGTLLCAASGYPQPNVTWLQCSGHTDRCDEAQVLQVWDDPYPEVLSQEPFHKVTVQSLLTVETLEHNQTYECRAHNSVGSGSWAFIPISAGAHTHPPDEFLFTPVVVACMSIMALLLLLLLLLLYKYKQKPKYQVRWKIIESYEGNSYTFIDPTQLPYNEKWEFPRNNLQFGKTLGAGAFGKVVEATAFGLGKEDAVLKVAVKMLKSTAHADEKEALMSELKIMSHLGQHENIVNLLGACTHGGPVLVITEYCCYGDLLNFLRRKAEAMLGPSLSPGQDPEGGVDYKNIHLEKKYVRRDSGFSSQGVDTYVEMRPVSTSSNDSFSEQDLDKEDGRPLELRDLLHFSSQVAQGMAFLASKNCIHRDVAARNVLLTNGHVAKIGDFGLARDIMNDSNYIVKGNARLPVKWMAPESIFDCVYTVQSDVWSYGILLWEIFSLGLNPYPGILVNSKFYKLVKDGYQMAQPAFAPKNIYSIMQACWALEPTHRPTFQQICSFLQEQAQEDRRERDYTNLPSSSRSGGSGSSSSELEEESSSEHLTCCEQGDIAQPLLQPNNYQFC
Procedure: THP-1 cells (catalog #TIB-202) were obtained from the ATCC. Briefly, cells were grown in RPMI 1640 supplemented with 10% characterized fetal bovine serum, 1% sodium pyruvate, 1% Penicillin-Streptomycin-Glutamine (PSG) and 55 uM 2-mercaptoethanol (Invitrogen, Carlsbad, Calif.) at 37 degrees Celsius, 5% CO2, 95% humidity. Cells were allowed to expand until reaching 70-95% confluency at which point they were subcultured or harvested for assay use.
A serial dilution of test compound was diluted 1:100 in assay medium (RPMI 1640 supplemented with 10% characterized fetal bovine serum) in a 96 well black clear bottom plate (Corning, Corning, N.Y.). In a separate 96 well black clear bottom plate, one hundred and fifty thousand THP-1 cells were added per well in 100 μL in assay medium. Fifty microliters of diluted compound was then added to the cells. Plates were incubated for 4 hours at 37 degrees Celsius, 5% CO2, 95% humidity. At the end of the incubation period, cells were stimulated with 50 μL of a 100 nM solution of recombinant human M-CSF (catalog #216-MC, R & D Systems, Minneapolis, Minn.) in assay medium and the plate was incubated for 5 minutes at 37 degrees Celsius, 5% CO2, 95% humidity. Lysates were prepared and used to perform the phospho-FMS ELISA as described by the manufacturer (catalog #DYC3268, R & D Systems, Minneapolis, Minn.). GraphPad Prism was used to calculate IC50 values obtained from data generated from the ELISA assay.

[2] = target: unphosphorylated c-FMS kinase (uFMS, Seq. ID no. 1) (Homo sapiens (Human), UniProt P07333); assay: uFMS kinase assay (ADP production coupled to pyruvate kinase/lactate dehydrogenase); assay type: biochemical; details: enzymatic assay, ATP 500 μM
unphosphorylated c-FMS kinase (uFMS, Seq. ID no. 1), sequence (P07333 538-972): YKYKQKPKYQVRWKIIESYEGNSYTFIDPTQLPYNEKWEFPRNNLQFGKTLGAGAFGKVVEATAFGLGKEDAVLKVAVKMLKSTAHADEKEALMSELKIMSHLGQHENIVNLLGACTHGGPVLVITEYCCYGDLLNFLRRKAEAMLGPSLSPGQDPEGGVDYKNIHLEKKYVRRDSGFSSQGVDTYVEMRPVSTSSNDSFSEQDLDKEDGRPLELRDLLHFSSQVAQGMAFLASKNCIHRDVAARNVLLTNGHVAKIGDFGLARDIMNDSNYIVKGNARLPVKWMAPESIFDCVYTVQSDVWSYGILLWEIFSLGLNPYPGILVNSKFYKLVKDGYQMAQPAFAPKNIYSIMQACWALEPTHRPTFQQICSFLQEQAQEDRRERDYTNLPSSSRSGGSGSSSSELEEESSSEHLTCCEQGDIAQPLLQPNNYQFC
How it was run: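 Unphosphorylated FMS (10 nM) with polyE4Y 1 mg/mL and 500 μM ATP in 90 mM Tris pH 7.5, 10 mM MgCl2, 0.2% octyl-glucoside, 1% DMSO. ADP formation was coupled via pyruvate kinase/LDH to NADH oxidation, followed at A340 for 4 h at 30° C.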

[3] = target: unphosphorylated PDGFRβ kinase (uPDGFRβ, Seq. ID No. 3) (Homo sapiens (Human), UniProt P09619); assay: Unphosphorylated PDGFRβ kinase assay (coupled pyruvate kinase/lactate dehydrogenase); assay type: biochemical; details: enzymatic assay, ATP 500 μM
unphosphorylated PDGFRβ kinase (uPDGFRβ, Seq. ID No. 3), sequence (P09619 557-1106): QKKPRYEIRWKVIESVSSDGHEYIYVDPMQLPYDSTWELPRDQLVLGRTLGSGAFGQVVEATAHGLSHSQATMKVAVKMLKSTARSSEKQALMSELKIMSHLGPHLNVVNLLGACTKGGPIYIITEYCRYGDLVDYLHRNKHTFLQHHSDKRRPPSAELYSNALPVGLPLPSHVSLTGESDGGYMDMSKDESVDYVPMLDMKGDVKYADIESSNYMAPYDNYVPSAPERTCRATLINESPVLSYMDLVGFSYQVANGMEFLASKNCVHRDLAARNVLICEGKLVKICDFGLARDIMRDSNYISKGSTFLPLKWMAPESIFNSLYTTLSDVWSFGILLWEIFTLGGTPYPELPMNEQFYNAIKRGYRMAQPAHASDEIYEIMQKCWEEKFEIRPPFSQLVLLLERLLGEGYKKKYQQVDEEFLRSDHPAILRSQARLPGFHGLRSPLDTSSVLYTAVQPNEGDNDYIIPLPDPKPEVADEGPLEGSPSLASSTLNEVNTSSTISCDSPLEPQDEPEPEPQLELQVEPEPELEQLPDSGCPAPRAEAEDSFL
Procedure: Unphosphorylated PDGFRβ (uPDGFRβ) Kinase (Seq. ID No. 3) Assay
Activity of unphosphorylated PDGFRβ kinase (uPDGFRβ, Seq. ID No. 3) was determined by following the production of ADP from the kinase reaction with ATP and poly E4Y as substrates through coupling with the pyruvate kinase/lactate dehydrogenase system (e.g., Schindler et al. Science (2000) 289: 1938-1942). In this assay, the oxidation of NADH (thus the decrease at A340 nm) was continuously monitored spectrophometrically. The reaction mixture (100 μL) contained PDGFRβ (DeCode, 15.7 nM), polyE4Y (2.5 mg/mL), MgCl2 (10 mM), pyruvate kinase (4 units), lactate dehydrogenase (0.7 units), phosphoenol pyruvate (1 mM) and NADH (0.28 mM) and ATP (500 μM) in a 90 mM Tris buffer containing 0.2% octyl-glucoside and 1% DMSO, at pH 7.5. The inhibition reaction was started by mixing serial diluted test compound with the above reaction mixture. The absorption at 340 nm was monitored continuously for 4 h at 30° C. on a Polarstar Optima or Synergy 2 plate reader. The reaction rate was calculated using the 1.5 to 2.5 h time frame. Percent inhibition was obtained by comparison of reaction rate with that of a control (i.e., with no test compound). IC50 values were calculated from a series of percent inhibition values determined at a range of inhibitor concentrations using software routines as implemented in the GraphPad Prism software package.
uPDGFRβ Kinase Sequence (Residues 557-1106) Used for Screening (Seq ID No. 3)

[4] = target: unphosphorylated c-KIT kinase (uKIT, Seq. ID no. 2) (Homo sapiens (Human), UniProt P10721); assay: uKit kinase assay (coupled pyruvate kinase/lactate dehydrogenase); assay type: biochemical; details: enzymatic assay, ATP 2000 μM
unphosphorylated c-KIT kinase (uKIT, Seq. ID no. 2), sequence (P10721 other isoform, or with tags, fused parts or gaps): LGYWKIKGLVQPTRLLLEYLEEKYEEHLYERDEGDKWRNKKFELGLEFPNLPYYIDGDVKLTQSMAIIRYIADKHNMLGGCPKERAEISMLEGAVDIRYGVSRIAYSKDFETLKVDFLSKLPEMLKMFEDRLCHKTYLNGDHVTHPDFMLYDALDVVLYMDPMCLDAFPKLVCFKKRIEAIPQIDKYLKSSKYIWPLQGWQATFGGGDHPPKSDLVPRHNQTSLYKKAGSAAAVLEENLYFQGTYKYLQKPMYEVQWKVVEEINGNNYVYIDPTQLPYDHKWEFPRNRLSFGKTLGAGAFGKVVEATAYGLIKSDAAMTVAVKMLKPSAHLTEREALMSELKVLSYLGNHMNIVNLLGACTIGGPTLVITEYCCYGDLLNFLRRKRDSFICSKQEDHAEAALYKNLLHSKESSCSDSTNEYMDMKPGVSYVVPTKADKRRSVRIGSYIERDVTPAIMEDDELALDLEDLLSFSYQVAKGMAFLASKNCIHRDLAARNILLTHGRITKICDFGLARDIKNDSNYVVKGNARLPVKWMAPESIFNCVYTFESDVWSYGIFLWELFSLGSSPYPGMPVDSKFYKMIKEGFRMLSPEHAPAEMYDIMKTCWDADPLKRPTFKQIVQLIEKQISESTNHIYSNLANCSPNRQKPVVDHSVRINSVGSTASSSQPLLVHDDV
How it was run: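 The read-out was a continuous PK/LDH-coupled decrease in NADH absorbance at 340 nm, monitored at 30 °C over 4 h. IC50 came from % inhibition based on rates at 3–4 h. The GST-tagged unphosphorylated KIT (12 nM) was used with polyE4Y substrate, 2000 μM ATP and 10 mM Mg2+ at pH 7.5, with serially diluted compound.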

For `Cn1cc(-c2cc(Oc3ccc(NC(=O)N4CCN(C5CCOCC5)C4=O)nc3)ncn2)cn1` [Example 8, N-(5-((6-(1-methyl-1H-pyrazol-4-yl)pyrimidin-4-yl)oxy)pyridin-2-yl)-2-oxo-3-(tetrahydro-2H-pyran-4-yl)imidazolidine-1-carboxamide], the IC50 (osteoclast precursors; Osteoclast) was 10 to 100 nM, the IC50 (M-NFS-60 cells) was 100 to 1000 nM and the IC50 [1] was 10 to 100 nM. It also gave an IC50 ([2]; read-out: uFMS) of 10 to 100 nM.

For `CC(=O)Nc1cc(Oc2cc(F)c(NC(=O)N3CCN(C4CCOCC4)C3=O)cc2Cl)ccn1` [Example 97, N-(4-((2-acetamidopyridin-4-yl)oxy)-5-chloro-2-fluorophenyl)-2-oxo-3-(tetrahydro-2H-pyran-4-yl)imidazolidine-1-carboxamide], the IC50 (osteoclast precursors; Osteoclast) was 100 to 1000 nM, the IC50 (M-NFS-60 cells) was 100 to 1000 nM and the IC50 [1] was 100 to 1000 nM. The IC50 ([2]; read-out: uFMS) was 10 to 100 nM.

With `Cc1nc(NC(=O)N2CCN(C3CCOCC3)C2=O)ccc1Oc1ccnc(-c2cn[nH]c2)c1` [Example 9, N-(5-((2-(1H-pyrazol-4-yl)pyridin-4-yl)oxy)-6-methylpyridin-2-yl)-2-oxo-3-(tetrahydro-2H-pyran-4-yl)imidazolidine-1-carboxamide] the IC50 (osteoclast precursors; Osteoclast) was 10 to 100 nM, the IC50 (M-NFS-60 cells) was 100 to 1000 nM and the IC50 [1] was 10 to 100 nM. For the same compound, the IC50 ([2]; read-out: uFMS) was 10 to 100 nM.

For `Cn1cc(-c2cc(Oc3cc(F)c(NC(=O)N4CCN(C5CCOCC5)C4=O)cc3Br)ccn2)cn1` [Example 109, N-(5-bromo-2-fluoro-4-((2-(1-methyl-1H-pyrazol-4-yl)pyridin-4-yl)oxy)phenyl)-2-oxo-3-(tetrahydro-2H-pyran-4-yl)imidazolidine-1-carboxamide], the IC50 [3] was over 1000 nM, the IC50 [4] was 10 to 100 nM and the IC50 (osteoclast precursors; Osteoclast) was 100 to 1000 nM. It also gave an IC50 (M-NFS-60 cells) of 10 to 100 nM and an IC50 ([2]; read-out: uFMS) of 10 to 100 nM.

Compound `Cc1cn(-c2cc(Oc3cnc(NC(=O)N4CCN(C)C4=O)cc3C)ccn2)cn1` [Example 89, 3-methyl-N-(4-methyl-5-((2-(4-methyl-1H-imidazol-1-yl)pyridin-4-yl)oxy)pyridin-2-yl)-2-oxoimidazolidine-1-carboxamide] has an IC50 [3] of over 1000 nM, an IC50 [4] of 100 to 1000 nM and an IC50 (osteoclast precursors; Osteoclast) of 100 to 1000 nM. It also gave an IC50 (M-NFS-60 cells) of over 1000 nM and an IC50 ([2]; read-out: uFMS) of 100 to 1000 nM.

`CCN1CCN(C(=O)Nc2ccc(Oc3ccnc(-c4cnc(C)s4)c3)cn2)C1=O` [Example 69, 3-ethyl-N-(5-((2-(2-methylthiazol-5-yl)pyridin-4-yl)oxy)pyridin-2-yl)-2-oxoimidazolidine-1-carboxamide] gave an IC50 [3] of over 1000 nM, an IC50 [4] of 10 to 100 nM and an IC50 (osteoclast precursors; Osteoclast) of 10 to 100 nM. The IC50 (M-NFS-60 cells) was 100 to 1000 nM and the IC50 ([2]; read-out: uFMS) was 10 to 100 nM.

`Cc1cc(NC(=O)N2CCN(C3CCCC3)C2=O)nc(C)c1Oc1ccnc(-c2cnn(C)c2)c1` [Example 72, 3-cyclopentyl-N-(4,6-dimethyl-5-((2-(1-methyl-1H-pyrazol-4-yl)pyridin-4-yl)oxy)pyridin-2-yl)-2-oxoimidazolidine-1-carboxamide] gave an IC50 [3] of 10 to 100 nM, an IC50 [4] of under 10 nM and an IC50 (osteoclast precursors; Osteoclast) of under 10 nM. The IC50 (M-NFS-60 cells) was under 10 nM and the IC50 ([2]; read-out: uFMS) was under 10 nM.

`CC(C)N1CCN(C(=O)Nc2ncc(Oc3ccnc(-c4cnn(C)c4)c3)cn2)C1=O` [Example 2, 3-isopropyl-N-(5-((2-(1-methyl-1H-pyrazol-4-yl)pyridin-4-yl)oxy)pyrimidin-2-yl)-2-oxoimidazolidine-1-carboxamide] showed an IC50 [3] of over 1000 nM, an IC50 [4] of 10 to 100 nM and an IC50 (osteoclast precursors; Osteoclast) of under 10 nM. It also gave an IC50 (M-NFS-60 cells) of 10 to 100 nM and an IC50 ([2]; read-out: uFMS) of 10 to 100 nM.

In the case of `Cc1nc(NC(=O)N2CCN(C3CC3)C2=O)ccc1Oc1ccnc(-c2cnn(C)c2)c1` [Example 47, 3-cyclopropyl-N-(6-methyl-5-((2-(1-methyl-1H-pyrazol-4-yl)pyridin-4-yl)oxy)pyridin-2-yl)-2-oxoimidazolidine-1-carboxamide], the IC50 [3] is reported as over 1000 nM, the IC50 [4] is reported as 100 to 1000 nM and the IC50 (osteoclast precursors; Osteoclast) is reported as under 10 nM. For the same compound, the IC50 (M-NFS-60 cells) was 10 to 100 nM and the IC50 ([2]; read-out: uFMS) was under 10 nM.

For `Cc1nc(NC(=O)N2CCN(C3CC3)C2=O)ccc1Oc1ccnc(-c2ccc(C3CCN(C)CC3)cc2)c1` [Example 86, 3-cyclopropyl-N-(6-methyl-5-((2-(4-(1-methylpiperidin-4-yl)phenyl)pyridin-4-yl)oxy)pyridin-2-yl)-2-oxoimidazolidine-1-carboxamide], the IC50 [3] was over 1000 nM, the IC50 [4] was 10 to 100 nM and the IC50 (osteoclast precursors; Osteoclast) was under 10 nM. It also gave an IC50 (M-NFS-60 cells) of under 10 nM and an IC50 ([2]; read-out: uFMS) of under 10 nM.

Compound `CN1CCN(C(=O)Nc2ccc(Oc3ccnc(-c4cnn(C)c4)c3)cn2)C1=O` [Example 44, 3-methyl-N-(5-((2-(1-methyl-1H-pyrazol-4-yl)pyridin-4-yl)oxy)pyridin-2-yl)-2-oxoimidazolidine-1-carboxamide] has an IC50 [3] of over 1000 nM, an IC50 [4] of 100 to 1000 nM and an IC50 (osteoclast precursors; Osteoclast) of 10 to 100 nM. For the same compound, the IC50 (M-NFS-60 cells) was 100 to 1000 nM and the IC50 ([2]; read-out: uFMS) was 10 to 100 nM.

Compound `COCCN1CCN(C(=O)Nc2ccc(Oc3ccnc(-c4ccc(C5CCN(C)CC5)cc4)c3)c(C)n2)C1=O` [Example 80, 3-(2-methoxyethyl)-N-(6-methyl-5-((2-(4-(1-methylpiperidin-4-yl)phenyl)pyridin-4-yl)oxy)pyridin-2-yl)-2-oxoimidazolidine-1-carboxamide] has an IC50 [3] of over 1000 nM, an IC50 [4] of 100 to 1000 nM and an IC50 (osteoclast precursors; Osteoclast) of 10 to 100 nM. For the same compound, the IC50 (M-NFS-60 cells) was 10 to 100 nM and the IC50 ([2]; read-out: uFMS) was under 10 nM.

With `CC(=O)Nc1cc(Oc2ccc(NC(=O)N3CCN(C4CCOCC4)C3=O)nc2C)ccn1` [Example 121, N-(5-((2-acetamidopyridin-4-yl)oxy)-6-methylpyridin-2-yl)-2-oxo-3-(tetrahydro-2H-pyran-4-yl)imidazolidine-1-carboxamide] the IC50 [3] was 100 to 1000 nM, the IC50 [4] was 100 to 1000 nM and the IC50 (osteoclast precursors; Osteoclast) was 100 to 1000 nM. It also gave an IC50 (M-NFS-60 cells) of 100 to 1000 nM and an IC50 ([2]; read-out: uFMS) of 10 to 100 nM.

`Cn1cc(-c2cc(Oc3ccc(NC(=O)N4CCN(C5CC5)C4=O)nc3)ccn2)cn1` [Example 46, 3-cyclopropyl-N-(5-((2-(1-methyl-1H-pyrazol-4-yl)pyridin-4-yl)oxy)pyridin-2-yl)-2-oxoimidazolidine-1-carboxamide] gave an IC50 [3] of 100 to 1000 nM, an IC50 [4] of 10 to 100 nM and an IC50 (osteoclast precursors; Osteoclast) of under 10 nM. For the same compound, the IC50 (M-NFS-60 cells) was 10 to 100 nM and the IC50 ([2]; read-out: uFMS) was under 10 nM.

`Cc1cc(NC(=O)N2CCN(C3CC3)C2=O)nc(C)c1Oc1ccnc(-c2cnn(C)c2)c1` [Example 71, 3-cyclopropyl-N-(4,6-dimethyl-5-((2-(1-methyl-1H-pyrazol-4-yl)pyridin-4-yl)oxy)pyridin-2-yl)-2-oxoimidazolidine-1-carboxamide] showed an IC50 [3] of 100 to 1000 nM, an IC50 [4] of 10 to 100 nM and an IC50 (osteoclast precursors; Osteoclast) of 10 to 100 nM. The IC50 (M-NFS-60 cells) was 10 to 100 nM and the IC50 ([2]; read-out: uFMS) was under 10 nM.

In the case of `Cc1nc(NC(=O)N2CCN([C@@H]3CCOC3)C2=O)ccc1Oc1ccnc(-c2cnn(C)c2)c1` [Example 28, (R)—N-(6-methyl-5-((2-(1-methyl-1H-pyrazol-4-yl)pyridin-4-yl)oxy)pyridin-2-yl)-2-oxo-3-(tetrahydrofuran-3-yl)imidazolidine-1-carboxamide], the IC50 [3] is reported as over 1000 nM, the IC50 [4] is reported as 100 to 1000 nM and the IC50 (osteoclast precursors) is reported as under 10 nM. It also gave an IC50 (M-NFS-60 cells) of 10 to 100 nM and an IC50 ([2]; uFMS) of under 10 nM.
